From the supplement of paper PMC10307832

How the values were obtained:
Assay in all cases: relative viability (nuclei count vs DMSO), 5 days (fraction); higher = more cells survive
RAF265 + Tozasertib = compound: Cn1c(Nc2ccc(C(F)(F)F)cc2)nc2cc(Oc3ccnc(-c4ncc(C(F)(F)F)[nH]4)c3)ccc21 [RAF265] + Cc1cc(Nc2cc(N3CCN(C)CC3)nc(Sc3ccc(NC(=O)C4CC4)cc3)n2)n[nH]1 [Tozasertib] (partner 0.1 µM)
Summary of the method: (§1)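 A single step with final 0.05% Triton X-100, 1% formaldehyde and 1 ug/ml Hoechst fixed the cells and stained nuclei 5 days after treatment. Lung cancer cell lines in 1536-well plates had been treated by pin tool the day after seeding with one drug alone or a fixed anchor-drug dose plus five library-drug doses (not always all listed) in √10 steps, and nuclei were counted on 4× images. Relative viability is the ratio of nuclei in treated wells to nuclei in vehicle wells, taken as the median of duplicate plates.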

Doramapimod + Pemetrexed = compound: Cc1ccc(-n2nc(C(C)(C)C)cc2NC(=O)Nc2ccc(OCCN3CCOCC3)c3ccccc23)cc1 [Doramapimod] + Nc1nc2[nH]cc(CCc3ccc(C(=O)N[C@@H](CCC(=O)O)C(=O)O)cc3)c2c(=O)[nH]1 [Pemetrexed] (partner 0.2 µM)
Summary of the method: as §1

IPA-3 + Foretinib = compound: C1=CC=C2C(=C1)C=CC(=C2SSC3=C(C=CC4=CC=CC=C43)O)O [IPA-3] + COc1cc2c(Oc3ccc(NC(=O)C4(C(=O)Nc5ccc(F)cc5)CC4)cc3F)ccnc2cc1OCCCN1CCOCC1 [Foretinib] (partner 0.25 µM)
Summary of the method: as §1

RAF265 + Decitabine = compound: Cn1c(Nc2ccc(C(F)(F)F)cc2)nc2cc(Oc3ccnc(-c4ncc(C(F)(F)F)[nH]4)c3)ccc21 [RAF265] + Nc1ncn([C@H]2C[C@H](O)[C@@H](CO)O2)c(=O)n1 [Decitabine] (partner 2 µM)
Summary of the method: as §1

Cell Line	relative viability (RAF265 + Tozasertib; first compound 0.01 µM)	relative viability (RAF265 + Tozasertib; first compound 0.03162 µM)	relative viability (RAF265 + Tozasertib; first compound 0.1 µM)	relative viability (RAF265 + Tozasertib; first compound 0.3162 µM)	relative viability (RAF265 + Tozasertib; first compound 1 µM)	relative viability (Doramapimod + Pemetrexed; first compound 0.02 µM)	relative viability (Doramapimod + Pemetrexed; first compound 0.06325 µM)	relative viability (Doramapimod + Pemetrexed; first compound 0.2 µM)	relative viability (Doramapimod + Pemetrexed; first compound 0.6325 µM)	relative viability (Doramapimod + Pemetrexed; first compound 2 µM)	relative viability (IPA-3 + Foretinib; first compound 0.2 µM)	relative viability (IPA-3 + Foretinib; first compound 0.6325 µM)	relative viability (IPA-3 + Foretinib; first compound 2 µM)	relative viability (IPA-3 + Foretinib; first compound 6.325 µM)	relative viability (IPA-3 + Foretinib; first compound 20 µM)	relative viability (RAF265 + Decitabine; first compound 0.01 µM)	relative viability (RAF265 + Decitabine; first compound 0.03162 µM)	relative viability (RAF265 + Decitabine; first compound 0.1 µM)	relative viability (RAF265 + Decitabine; first compound 0.3162 µM)	relative viability (RAF265 + Decitabine; first compound 1 µM)
CAL-12T	0.392	0.308	0.364	0.306	0.172	1.02	1.08	1.25	1.22	0.947	1.16	1.01	1.12	0.976	1.14	–	–	–	–	–
NCI-H1648	0.425	0.431	0.598	0.466	0.417	0.745	0.87	0.584	0.705	0.632	–	–	–	–	–	0.453	0.557	0.518	0.4	0.391
NCI-H522	0.57	0.602	0.546	0.553	0.521	0.909	1.05	0.797	0.715	0.796	–	–	–	–	–	0.651	0.585	0.604	0.729	0.617
IA-LM	–	–	–	–	–	–	–	–	–	–	1.24	0.989	1.16	1.05	1.23	–	–	–	–	–
EPLC-272H	0.218	0.328	0.275	0.257	0.199	0.351	0.301	0.303	0.374	0.327	0.901	0.639	0.655	0.795	0.857	0.409	0.34	0.371	0.243	0.231
A-427	0.218	0.213	0.205	0.109	0.089	0.926	1	1	–	0.988	1.1	1.08	1.11	1.06	1.14	0.549	0.507	0.514	0.37	0.238
NCI-H647	0.197	0.207	0.269	0.443	0.158	0.195	0.138	0.15	0.168	0.152	1.36	1.26	1.08	1.03	1.12	0.394	0.33	0.357	0.266	0.262
NCI-H1975	0.676	0.621	0.7	0.379	0.126	0.305	0.276	0.304	0.293	0.282	1.01	0.887	1.03	0.873	0.935	0.403	0.364	0.308	0.263	0.254
NCI-H358	0.11	0.0915	0.0883	0.0935	0.0863	0.176	0.167	0.162	0.169	0.175	0.815	0.622	0.713	0.732	0.721	0.25	0.206	0.164	0.15	0.154
